Reference: the C3SDB collision cross section collection
Values joined by “and” are separate entries in the source; they are usually repeats but may differ in a detail not shown here. Equal entries are not always repeated. Structures can show the parent of a compound that is named as a salt.

Conditions: instrument: DT, single field, calibrated with ESI Low Concentration Tuning Mix (Agilent)

C[C@@H]1OC(O)[C@@H](O)[C@H](O)[C@@H]1O (stereo partly drawn) [FUCOSE]
collision cross section (N2) ([M+Na]+): 138.7 Å²

O=C(O)[C@@H](O)[C@H](O)[C@H](O)[C@@H](O)C(=O)O [GALACTARATE]
collision cross section (N2) ([M+Na-2H]-): 137.2 Å² | collision cross section (N2) ([M+Na]+): 146.9 Å² | collision cross section (N2) ([M-H]-): 132.6 Å²

OC[C@@H](O)[C@H](O)[C@H](O)[C@@H](O)CO [GALACTITOL]
collision cross section (N2) ([M+Na]+): 142.2 Å² | collision cross section (N2) ([M-H]-): 130.5 Å²

O=C(O)[C@H](O)[C@@H](O)[C@H](O)[C@H](O)CO [GLUCONATE]
collision cross section (N2) ([M+Na]+): 146.2 Å² and 146.3 Å² | collision cross section (N2) ([M-H]-): 132.4 Å²

N[C@@H]1[C@@H](O)[C@H](O)[C@@H](COS(=O)(=O)O)O[C@H]1O [GLUCOSAMINE 6-SULFATE]
collision cross section (N2) ([M-H]-): 149.4 Å²

N[C@@H](CCC(=O)O)C(=O)O [GLUTAMATE]
collision cross section (N2) ([M+H]+): 131.1 Å² | collision cross section (N2) ([M+K]+): 149.8 Å² | collision cross section (N2) ([M+Na-2H]-): 131.8 Å² | collision cross section (N2) ([M-H]-): 123.8 Å²

NC(=O)CC[C@H](N)C(=O)O [GLUTAMINE]
collision cross section (N2) ([M+H]+): 130.9 Å² | collision cross section (N2) ([M-H]-): 127.3 Å²

C[N+](C)(C)C[C@@H](CC(=O)[O-])OC(=O)CCCC(=O)O [GLUTARYLCARNITINE]
collision cross section (N2) ([M+H]+): 161.1 Å² | collision cross section (N2) ([M+Na]+): 167.1 Å² | collision cross section (N2) ([M-H]-): 165.3 Å²

C[C@H](CCC(=O)NCC(=O)O)[C@H]1CC[C@H]2[C@@H]3[C@H](O)C[C@@H]4C[C@H](O)CC[C@]4(C)[C@H]3CC[C@]12C [GLYCOCHENODEOXYCHOLATE]
collision cross section (N2) ([M+H]+): 196.8 Å² | collision cross section (N2) ([M+Na]+): 203.6 Å² | collision cross section (N2) ([M-H]-): 200.7 Å²

NC(N)=NCC(=O)O [GUANIDINOACETATE]
collision cross section (N2) ([M+H]+): 124.9 Å² | collision cross section (N2) ([M+Na]+): 134.6 Å²

NC(N)=N[C@@H](CC(=O)O)C(=O)O [GUANIDINOSUCCINATE]
collision cross section (N2) ([M+H]+): 136.8 Å² | collision cross section (N2) ([M+Na-2H]-): 147 Å² | collision cross section (N2) ([M+Na]+): 148 Å² | collision cross section (N2) ([M-H]-): 130.2 Å²

Nc1nc(=O)c2ncn([C@@H]3O[C@H](COP(=O)(O)OP(=O)(O)O[C@H]4O[C@H](CO)[C@@H](O)[C@H](O)[C@@H]4O)[C@@H](O)[C@H]3O)c2[nH]1 [GUANOSINE DIPHOSPHATE MANNOSE]
collision cross section (N2) ([M+H]+): 227.4 Å² | collision cross section (N2) ([M+Na-2H]-): 205.5 Å² and 217.2 Å² | collision cross section (N2) ([M+Na]+): 222.3 Å² | collision cross section (N2) ([M-H]-): 209 Å²

Nc1nc(=O)c2ncn([C@@H]3O[C@H](COP(=O)(O)OP(=O)(O)O)[C@@H](O)[C@H]3O)c2[nH]1 [GUANOSINE DIPHOSPHATE]
collision cross section (N2) ([M+H]+): 192 Å² | collision cross section (N2) ([M+Na-2H]-): 186.4 Å² | collision cross section (N2) ([M+Na]+): 188.4 Å² | collision cross section (N2) ([M-H]-): 182.4 Å²

Nc1nc(=O)c2ncn([C@@H]3O[C@H](COP(=O)(O)OP(=O)(O)OP(=O)(O)O)[C@@H](O)[C@H]3O)c2[nH]1 [GUANOSINE TRIPHOSPHATE]
collision cross section (N2) ([M+Na-2H]-): 184.2 Å² | collision cross section (N2) ([M-H]-): 193 Å²

Nc1nc(=O)c2ncn([C@@H]3O[C@H](CO)[C@@H](O)[C@H]3O)c2[nH]1 [GUANOSINE]
collision cross section (N2) ([M+H]+): 163.4 Å² | collision cross section (N2) ([M+K]+): 174.3 Å² | collision cross section (N2) ([M+Na]+): 174.9 Å² | collision cross section (N2) ([M-H]-): 162.1 Å²

NCCc1cnc[nH]1 [HISTAMINE]
collision cross section (N2) ([M+H]+): 120.4 Å²

N[C@@H](Cc1cnc[nH]1)C(=O)O [HISTIDINE]
collision cross section (N2) ([M+H]+): 131.7 Å² and 132.1 Å² | collision cross section (N2) ([M+Na]+): 134.6 Å² and 134.8 Å² | collision cross section (N2) ([M-H]-): 128.1 Å² and 128.5 Å²

NC(CO)Cc1cnc[nH]1 (stereo not drawn) [HISTIDINOL]
collision cross section (N2) ([M+H]+): 128.7 Å² | collision cross section (N2) ([M+Na]+): 131.9 Å² | collision cross section (N2) ([M-H]-): 127.5 Å²

N[C@@H](CCS)C(=O)O [HOMOCYSTEINE]
collision cross section (N2) ([M+H]+): 130.3 Å² | collision cross section (N2) ([M+Na-2H]-): 127.6 Å² | collision cross section (N2) ([M-H]-): 143.6 Å²

NC(CCSSCCC(N)C(=O)O)C(=O)O (stereo not drawn) [HOMOCYSTINE]
collision cross section (N2) ([M+H]+): 158 Å² | collision cross section (N2) ([M+Na-2H]-): 154.2 Å² | collision cross section (N2) ([M+Na]+): 158.8 Å² | collision cross section (N2) ([M-H]-): 151.6 Å²

O=c1nc[nH]c2c1ncn2[C@@H]1O[C@H](CO)[C@@H](O)[C@H]1O [INOSINE]
collision cross section (N2) ([M+K]+): 170.2 Å² | collision cross section (N2) ([M+Na]+): 170.8 Å² | collision cross section (N2) ([M-H]-): 158.2 Å²

O=C(O)CC(C(=O)O)C(O)C(=O)O (stereo not drawn) [ISOCITRATE]
collision cross section (N2) ([M+Na-2H]-): 136.4 Å² | collision cross section (N2) ([M+Na]+): 142.7 Å² | collision cross section (N2) ([M-H]-): 127 Å²

C=C(CC(=O)O)C(=O)O [ITACONATE]
collision cross section (N2) ([M+Na]+): 131.7 Å² | collision cross section (N2) ([M-H]-): 118.7 Å²

N[C@@H](Cc1ccc(O)c(O)c1)C(=O)O [L-DOPA]
collision cross section (N2) ([M+H]+): 149.4 Å² | collision cross section (N2) ([M+Na]+): 147.5 Å² | collision cross section (N2) ([M-H]-): 140.6 Å²

CC(C)C[C@H](N)C(=O)O [LEUCINE]
collision cross section (N2) ([M+H]+): 134.8 Å² | collision cross section (N2) ([M-H]-): 130.6 Å²

CCCCC/C=C\C/C=C\CCCCCCCC(=O)O [LINOLEATE]
collision cross section (N2) ([M+Na]+): 177 Å²

O=C(O)CC(O)C(=O)O (stereo not drawn) [MALATE]
collision cross section (N2) ([M-H]-): 115.9 Å²

OC[C@H]1O[C@H](O[C@H]2[C@H](O)[C@@H](O)[C@H](O)O[C@@H]2CO)[C@H](O)[C@@H](O)[C@@H]1O [MALTOSE]
collision cross section (N2) ([M+K]+): 181.7 Å² | collision cross section (N2) ([M+Na]+): 178.9 Å² | collision cross section (N2) ([M-H]-): 180.1 Å²

O=C([O-])C(O)c1ccccc1 (stereo not drawn) [MANDELATE]
collision cross section (N2) ([M-H]-): 130.2 Å²

OC[C@H]1OC(O)[C@@H](O)[C@@H](O)[C@@H]1O (stereo partly drawn) [MANNOSE]
collision cross section (N2) ([M+Na]+): 141.5 Å²

C[C@@](O)(CCO)CC(=O)[O-] [MEVALONATE]
collision cross section (N2) ([M+Na]+): 132.9 Å² | collision cross section (N2) ([M-H]-): 128.7 Å²

OC1C(O)C(O)C(O)C(O)C1O (stereo not drawn) [MYOINOSITOL]
collision cross section (N2) ([M+Na]+): 148.6 Å² | collision cross section (N2) ([M-H]-): 131.3 Å²

CC(=O)N[C@@H](CCC(=O)O)C(=O)O [N-ACETYLGLUTAMATE]
collision cross section (N2) ([M+Na-2H]-): 143.3 Å² | collision cross section (N2) ([M+Na]+): 142.4 Å² | collision cross section (N2) ([M-H]-): 136.9 Å²

CC(=O)N[C@@H](CC(C)C)C(=O)O [N-ACETYLLEUCINE]
collision cross section (N2) ([M+Na]+): 149.9 Å² | collision cross section (N2) ([M-H]-): 140.5 Å²

CC(=O)N[C@H]1[C@H]([C@H](O)[C@H](O)CO)OC(O)(C(=O)O)C[C@@H]1O (stereo partly drawn) [N-ACETYLNEURAMINATE]
collision cross section (N2) ([M+H]+): 166.5 Å² | collision cross section (N2) ([M+Na-2H]-): 171.4 Å² | collision cross section (N2) ([M+Na]+): 168.7 Å² | collision cross section (N2) ([M-H]-): 158.5 Å² and 163.8 Å²

CN[C@@H](CCC(=O)O)C(=O)O [N-METHYLGLUTAMATE]
collision cross section (N2) ([M+H]+): 132.2 Å² | collision cross section (N2) ([M+Na-2H]-): 137.2 Å² | collision cross section (N2) ([M-H]-): 129.5 Å²

CNCCc1c[nH]c2ccccc12 [N-METHYLTRYPTAMINE]
collision cross section (N2) ([M+H]+): 142.5 Å²

O=C([O-])c1cccnc1 [NICOTINATE]
collision cross section (N2) ([M-H]-): 121 Å²

COc1cc(C(O)CN)ccc1O (stereo not drawn) [NORMETANEPHRINE]
collision cross section (N2) ([M+Na]+): 155 Å²

O=C(O)CCCCCCCCCCCO [OMEGA-HYDROXYDODECANOATE]
collision cross section (N2) ([M+Na]+): 160.3 Å² | collision cross section (N2) ([M-H]-): 152.6 Å²

O=C(O)CCCC(=O)C(=O)O [OXOADIPATE]
collision cross section (N2) ([M+Na-2H]-): 132.2 Å² | collision cross section (N2) ([M+Na]+): 137.9 Å² | collision cross section (N2) ([M-H]-): 126.5 Å²

CCCCCC/C=C\CCCCCCCC(=O)O [PALMITOLEATE]
collision cross section (N2) ([M-H]-): 167.3 Å²

CCCCCCCCCCCCCCCC(=O)OC(CC(=O)[O-])C[N+](C)(C)C (stereo not drawn) [PALMITOYLCARNITINE]
collision cross section (N2) ([M+H]+): 213.9 Å² | collision cross section (N2) ([M+Na]+): 219.7 Å²

CN(CC(=O)O)/C(N)=N/P(=O)(O)O [PHOSPHOCREATINE]
collision cross section (N2) ([M+H]+): 144.6 Å² and 144.8 Å² | collision cross section (N2) ([M+Na-2H]-): 142.7 Å² and 142.8 Å²

C=C(OP(=O)(O)O)C(=O)O [PHOSPHOENOLPYRUVATE]
collision cross section (N2) ([M+Na]+): 138 Å² and 138.4 Å²

O=C(O)CP(=O)(O)O [PHOSPHONOACETATE]
collision cross section (N2) ([M+Na]+): 134.5 Å²

CC(=O)[C@H]1CC[C@H]2[C@@H]3CC=C4C[C@@H](OS(=O)(=O)O)CC[C@]4(C)[C@H]3CC[C@]12C [PREGNENOLONE SULFATE]
collision cross section (N2) ([M-H]-): 206.2 Å²

O=C(O)[C@@H]1CCCN1 [PROLINE]
collision cross section (N2) ([M+H]+): 125.1 Å² | collision cross section (N2) ([M-H]-): 124.5 Å²

C=Cc1c(C)c2cc3[nH]c(cc4nc(cc5nc(cc1[nH]2)C(C)=C5CCC(=O)O)C(CCC(=O)O)=C4C)c(C)c3C=C [PROTOPORPHYRIN]
collision cross section (N2) ([M+H]+): 241.3 Å²

OCC1(O)OC[C@@H](O)[C@@H](O)[C@H]1O (stereo partly drawn) [PSICOSE]
collision cross section (N2) ([M+Na]+): 137.6 Å²

Nc1nc(=O)c2nccnc2[nH]1 [PTERIN]
collision cross section (N2) ([M+H]+): 128.6 Å² | collision cross section (N2) ([M+Na]+): 143.4 Å² | collision cross section (N2) ([M-H]-): 128.1 Å²

Cc1ncc(COP(=O)(O)O)c(C=O)c1O [PYRIDOXAL-PHOSPHATE]
collision cross section (N2) ([M+H]+): 151.3 Å² | collision cross section (N2) ([M+Na-2H]-): 153.2 Å² | collision cross section (N2) ([M+Na]+): 160.8 Å² | collision cross section (N2) ([M-H]-): 149.4 Å²

O=C(O)C1(O)C[C@@H](O)C(O)[C@H](O)C1 (stereo partly drawn) [QUINATE]
collision cross section (N2) ([M+Na]+): 151.7 Å² | collision cross section (N2) ([M-H]-): 134.5 Å²

CC(=O)Oc1cccc(O)c1 [RESORCINOL MONOACETATE]
collision cross section (N2) ([M-H]-): 126.1 Å²

OC[C@@H](O)C(O)[C@@H](O)CO (stereo partly drawn) [RIBITOL]
collision cross section (N2) ([M+Na]+): 136.2 Å² | collision cross section (N2) ([M-H]-): 125.8 Å²

NC(CSCC(=O)O)C(=O)O (stereo not drawn) [S-CARBOXYMETHYLCYSTEINE]
collision cross section (N2) ([M+H]+): 137.1 Å² | collision cross section (N2) ([M+Na-2H]-): 136.7 Å² | collision cross section (N2) ([M+Na]+): 138.2 Å² | collision cross section (N2) ([M-H]-): 130 Å²

O=C(O)c1ccccc1[O-] [SALICYLATE]
collision cross section (N2) ([M-H]-): 119.8 Å²
